Measurements as given in paper PMC8193794 (Biochemistry, 2020).
Like-named read-outs stand apart in the source and are kept apart here.

Assays:
biotin-humanin [1] = assay: ELISA
Humanin (HN) peptide = assay: ELISA
biotin-humanin [2] = assay: ELISA; remark: listed apart in the source
biotin-humanin [3] = assay: ELISA; remark: listed apart in the source
biotin-humanin [4] = assay: ELISA; remark: listed apart in the source
[5] = molecular target: Amyloid-β (Aβ) of the conditioned media of A549 and H1299 cells (human (endogenous in A549 and H1299)); assay: ELISA
[6] = molecular target: Amyloid-β (Aβ) of the conditioned media of A549 and H1299 cells (human (endogenous in A549 and H1299)); assay: ELISA; remark: listed apart in the source
Aβ40-HN interactions = details: cited from earlier work
Aβ42 = assay: Thioflavin T; assay type: biochemical; details: 37 °C
Aβ40 = assay: Thioflavin T; assay type: biochemical; details: 37 °C
[7] = system: amyloid complexes in A549 conditioned medium; assay type: binding, human
H1299 cells [8] = assay: MTT assay, H1299 cells; assay type: cell-based, human; details: medium immunodepleted of the named component, 48 h
[9] = system: amyloid oligomers and fibrils in A549 medium; assay: Dot blot of A549 medium with exogenous IGFBP-3; assay type: cell-based, human; details: 400 nM vs 100 nM IGFBP-3, A549 medium
Aβ in H1299 medium = assay: Aβ ELISA; assay type: cell-based, human; details: Figure 11B; H1299 medium immunodepleted of the named component
[10] = system: 6E10-bound Aβ complex from A549 conditioned medium; assay: 6E10 capture ELISA of A549 conditioned medium with exogenous IGFBP-3; assay type: binding, human
[11] = system: 6E10-bound Aβ complex from H1299 conditioned medium; assay: 6E10 capture ELISA of H1299 conditioned medium with exogenous IGFBP-3; assay type: binding, human
[12] = system: A549 human lung cancer cell; details: residues 215–232 of IGFBP-3 bind hyaluronan, blocking CD44; cited from earlier work
A549 cells [13] = assay: Apoptosis, annexin V ELISA, A549 cells; assay type: cell-based, human; details: medium immunodepleted of the named component, 48 h
Aβ in A549 medium = assay: Aβ ELISA; assay type: cell-based, human; details: Figure 11A; A549 medium immunodepleted of the named component
[14] = system: amyloid oligomers and fibrils in H1299 medium; assay: Dot blot of H1299 medium with exogenous IGFBP-3; assay type: cell-based, human
A549 cells [15] = assay: MTT assay, A549 cells; assay type: cell-based, human; details: medium immunodepleted of the named component, 48 h
H1299 cells [16] = assay: Apoptosis, annexin V ELISA, H1299 cells; assay type: cell-based, human; details: medium immunodepleted of the named component, 48 h
[17] = system: HN-Aβ (Aβ40 or Aβ42) complex; assay: ELISA, HN-Aβ binding with increasing AChE, without or with IGFBP-3
[18] = system: Aβ / amyloid oligomers and fibrils in A549 medium; assay: Dot blot of immunodepleted A549 medium; assay type: cell-based, human; details: A549 medium immunodepleted of the named component; for anti-A11 oligomer signal after immunodepletion: Figure 9C,F
[19] = system: Aβ from A549 conditioned medium bound to 6E10; assay: 6E10 capture ELISA of A549 conditioned medium with exogenous HN; assay type: binding, human
[20] = system: Aβ from H1299 conditioned medium bound to 6E10; assay: 6E10 capture ELISA of H1299 conditioned medium with exogenous HN; assay type: binding, human
[21] = system: Aβ / amyloid oligomers and fibrils in H1299 medium; assay: Dot blot of immunodepleted H1299 medium; assay type: cell-based, human; details: Figure 9B,E; H1299 medium immunodepleted of the named component
[22] = system: complex between HN and Aβ42; assay: ELISA, IGFBP-3 competition for the HN-Aβ42 complex; assay type: binding; details: AChE (100 nM), HN (100 nM)
Aβ (12–28) and Aβ (1–16) = details: cited from earlier work
[23] = system: complex between HN and Aβ40; assay: ELISA, IGFBP-3 competition for the HN-Aβ40 complex; assay type: binding; details: AChE (100 nM), HN (100 nM)
[24] = Figure 8A, added IGFBP-3, cell line not stated
[25] = Figure 8A, cell line not stated
[26] = Figure 8B, A549 medium, added IGFBP-3

“Recombinant human insulin-like growth factor binding protein-3 (IGFBP-3) (from UniProt P17936 28-291) (natural protein)” showed an IC50 (biotin-humanin [1]) of 58 nM, a percent decrease of the biotinylated Aβ signal on HN at 0.2 μM IGFBP-3 (Humanin (HN) peptide) of 50% and an IC50 (biotin-humanin [2]) of 93 nM. For the same molecule, the IC50 (biotin-humanin [3]) was 74 nM and the IC50 (biotin-humanin [4]) was 39 nM.

For Humanin (HN) peptide, the fold decrease of AChE bound to Aβ with added HN [5] was 1.5 fold, the fold increase of the HN signal at 400 nM added HN over no added HN [5] was 2.5 fold and the fold increase of the HN signal at 400 nM added HN over no added HN [6] was 2.5 fold.

For “HN (5–15) (GFSCLLLLTSE; Humanin; UniProt Q8IVG9 5-15, looked up, fragment)”, the “inhibition of Aβ40-HN interactions” value (Aβ40-HN interactions) is given as “more effective inhibitor of Aβ40-HN interactions than Aβ (17–28)”.

In the case of Aβ42 [reference compound], the “aggregation kinetics compared to Aβ40 (ThT)” value (Aβ42; Aβ42 2 μM, 335 min) is reported as “faster aggregation kinetics”.

With IGFBP-3 the “effect of 2 μM IGFBP-3 on HN block of Aβ40 aggregation (ThT)” value (Aβ40; Aβ40 2 μM, HN 2 μM, IGFBP-3 2 μM, 335 min, no AChE) was “reduced the ability of HN to block aggregation of Aβ, but only partially”, the “effect of 6 μM IGFBP-3 on HN block of Aβ40 aggregation (ThT)” value (Aβ40; Aβ40 2 μM, HN 2 μM, IGFBP-3 6 μM, 335 min, no AChE) was “completely abolished the ability of HN to block the aggregation of Aβ” and the “Aβ40 aggregation with 6 μM IGFBP-3 in presence of AChE and HN (ThT)” value (Aβ40; Aβ40, AChE, HN each 2 μM, IGFBP-3 6 μM) was “aggregation kinetics comparable to those of Aβ incubated with only AChE”. The “detection in complex with any of the antibodies tested (6E10, 4G8, A11, LOC)” value [7] was “No IGFBP-3 was detected”, the “cell viability after treatment with immunodepleted medium” value (“cell viability after treatment” below) (H1299 cells [8]) was “no effect” and the “further effect of 400 nM IGFBP-3 on A11/LOC signals” value [9] was “did not have any further effect”. The “effect of immunodepletion on total Aβ or oligomer” value (“effect of immunodepletion” below) (Aβ in H1299 medium) was “No effects”, the “effect of 2 μM IGFBP-3 on HN block of Aβ42 aggregation (ThT)” value (Aβ42; Aβ42 2 μM, HN 2 μM, IGFBP-3 2 μM, 335 min, no AChE) was “reduced the ability of HN to block aggregation of Aβ, but only partially” and the “effect of 6 μM IGFBP-3 on HN block of Aβ42 aggregation (ThT)” value (Aβ42; Aβ42 2 μM, HN 2 μM, IGFBP-3 6 μM, 335 min, no AChE) was “completely abolished the ability of HN to block the aggregation of Aβ”. For the same molecule, the “Aβ42 aggregation with 6 μM IGFBP-3 in presence of AChE and HN (ThT)” value (Aβ42; Aβ42, AChE, HN each 2 μM, IGFBP-3 6 μM) was “aggregation kinetics comparable to those of Aβ incubated with only AChE”, the “IGFBP-3 detection in 6E10 complex after adding 400 nM IGFBP-3” value ([10]; A549 medium, Figure 8A-C) was “did not result in detection of IGFBP-3” and the “A11 (amyloid oligomer) signal fold increase relative to control” value [10, 24] was ~ 3.9 fold. For the same molecule, the “LOC (amyloid fibrils) signal fold increase relative to control” value [10, 24] was ~ 1.7 fold, the “HN in 6E10 complex upon addition of 50 nM IGFBP-3” value [10, 25] was “diminished” and the “HN in 6E10 complex upon addition of 100 nM IGFBP-3” value [10, 25] was “completely depleted”. For the same molecule, the “A11 signal fold increase relative to control without IGFBP-3” value [10, 26] was ~ 3.9 fold, the “LOC signal fold increase relative to control with no IGFBP-3” value [10, 26] was ~ 1.59 fold and the “IGFBP-3 detection in 6E10 complex after adding 400 nM IGFBP-3” value ([11]; Figure 8A-C) was “did not result in detection of IGFBP-3”. For the same molecule, the “LOC signal with added IGFBP-3” value ([11]; Figure 8C) was “no signal was observed”, the “A11 signal fold increase relative to control with no IGFBP-3” value ([11]; Figure 8C, added IGFBP-3) was ~ 2.5 fold and the A549 cell viability [12] was “reducing A549 human lung cancer cell viability”. For the same molecule, the “apoptosis after treatment with immunodepleted medium” value (“apoptosis after treatment” for short) (A549 cells [13]) was “reduced apoptosis”, the “effect of immunodepletion” value (Aβ in A549 medium) was “No effects” and the “anti-LOC signal, cell media in which increase was observed” value ([14]; 100 nM IGFBP-3 added, H1299 medium (no increase)) was “only in the A549 medium”. The “further effect of 400 nM IGFBP-3 on A11/LOC signals” value ([14]; 400 nM vs 100 nM IGFBP-3, H1299 medium) was “did not have any further effect”, the “cell viability after treatment” value (A549 cells [15]) was “increased the A549 cell viability” and the “apoptosis after treatment” value (H1299 cells [16]) was “no effect”. For the same molecule, the HN-Aβ binding signal ([17]; 2 μM IGFBP-3, HN and Aβ 0.2 μM) was “completely abolished the signal” and the “anti-A11 oligomer signal after immunodepletion” value [18] was “No difference”.

For “HN (5–15, L11S) (GFSCLLSLTSE; Humanin; UniProt Q8IVG9 5-15, looked up, variant L11S)”, the “inhibition of Aβ40-HN interactions” value (Aβ40-HN interactions) is given as “reduced the ability of HN (5–15) to compete with the Aβ40-HN interactions”.

B1: AChE (protein)
chain: EGREDAELLVTVRGGRLRGIRLKTPGGPVSAFLGIPFAEPPMGPRRFLPPEPKQPWSGVVDATTFQSVCYQYVDTLYPGFEGTEMWNPNRELSEDCLYLNVWTPYPRPTSPTPVLVWIYGGGFYSGASSLDVYDGRFLVQAERTVLVSMNYRVGAFGFLALPGSREAPGNVGLLDQRLALQWVQENVAAFGGDPTSVTLFGESAGAASVGMHLLSPPSRGLFHRAVLQSGAPNGPWATVGMGEARRRATQLAHLVGCPPGGTGGNDTELVACLRTRPAQVLVNHEWHVLPQESVFRFSFVPVVDGDFLSDTPEALINAGDFHGLQVLVGVVKDEGSYFLVYGAPGFSKDNESLISRAEFLAGVRVGVPQVSDLAAEAVVLHYTDWLHPEDPARLREALSDVVGDHNVVCPVAQLAGRLAAQGARVYAYVFEHRASTLSWPLWMGVPHGYEIEFIFGIPLDPSRNYTAEEKIFAQRLMRYWANFARTGDPNEPRDPKAPQWPPYTAGAQQYVSLDLRPLEVRRGLRAQACAFWNRFLPKLLSATDTLDEAERQWKAEFHRWSSYMVHWKNQFDHYSKQDRCSDL
For B1, the “aggregation of Aβ40 with AChE (ThT)” value (Aβ40; Aβ40 2 μM, AChE 2 μM, 335 min) was “increased aggregation with changes in both the lag phase and the final ThT fluorescence value”, the “cell viability after treatment” value (H1299 cells [8]) was “no effect” and the “AChE bound to Aβ (6E10 capture)” value [19] was “detectable levels”. The “effect of immunodepletion” value (Aβ in H1299 medium) was “No change”, the “AChE bound to Aβ (6E10 capture)” value [20] was “Barely detectable levels” and the “aggregation of Aβ42 with AChE (ThT)” value (Aβ42; Aβ42 2 μM, AChE 2 μM, 335 min) was “increased aggregation with changes in both the lag phase and the final ThT fluorescence value”. The “apoptosis after treatment” value (A549 cells [13]) was “reduced apoptosis”, the “Aβ detected with anti-6E10 after immunodepletion” value [21] was “no change” and the “effect of added AChE on IGFBP-3 competition with Aβ42 for HN” value [22] was “no difference”. For the same molecule, the “cell viability after treatment” value (A549 cells [15]) was “increased the A549 cell viability”, the “apoptosis after treatment” value (H1299 cells [16]) was “no effect” and the “change in signal with increasing AChE in presence of IGFBP-3” value ([17]; 0.2 or 2 μM IGFBP-3 present) was “no change in the signal”. The “binding to Aβ fragments” value (Aβ (12–28) and Aβ (1–16)) was “binds to Aβ (12–28) and the Aβ (1–16) peptide”, the “Aβ detected with anti-6E10 after immunodepletion” value ([18]; Figure 9B,E) was “decreased the amount of Aβ” and the “anti-A11 oligomer signal after immunodepletion” value [18] was “No difference”. For the same molecule, the “effect of added AChE on IGFBP-3 competition with Aβ40 for HN” value [23] was “no difference”.
